The assay has as its system P388 leukemia ip, CD2F1 mice, survival T/C. Briefly: NCI In Vivo Anticancer Drug Screen. Data for tumor model P388 Leukemia (intraperitoneal) in CD2F1 (CDF1) mice. The following applies: endpoint: median survival time, higher = longer survival. The method in brief:
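Mice carrying the transplanted tumor received test compound or vehicle. Survival was recorded in each group, and the value is the treated-group measurement divided by that of the vehicle-treated control group.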

[1] abbreviates: dose: 50.0 mg/kg/injection, schedule: Q01DX005 (ip), vehicle: Klucel (hydroxypropylcellulose) (HPC).
[2] abbreviates: dose: 100.0 mg/kg/injection, schedule: Q01DX005 (ip), vehicle: Klucel (hydroxypropylcellulose) (HPC).
Where [3] appears, read: dose: 200.0 mg/kg/injection, schedule: Q01DX005 (ip), vehicle: Klucel (hydroxypropylcellulose) (HPC).
The mark [4] stands for this setting: dose: 60.0 mg/kg/injection, schedule: Q01DX005 (ip), vehicle: saline with Tween-80.
Setting [5] is: dose: 120.0 mg/kg/injection, schedule: Q01DX005 (ip), vehicle: saline with Tween-80.
[6] abbreviates: dose: 240.0 mg/kg/injection, schedule: Q01DX005 (ip), vehicle: saline with Tween-80.
Setting [7] is: dose: 50.0 mg/kg/injection, schedule: Q01DX009 (ip), vehicle: saline with Tween-80.
[8] abbreviates: dose: 100.0 mg/kg/injection, schedule: Q01DX009 (ip), vehicle: saline with Tween-80.
Setting [9] is: dose: 12.5 mg/kg/injection, schedule: Q01DX005 (ip), vehicle: saline with Tween-80.
[10] abbreviates: dose: 25.0 mg/kg/injection, schedule: Q01DX005 (ip), vehicle: saline with Tween-80.
Where [11] appears, read: dose: 50.0 mg/kg/injection, schedule: Q01DX005 (ip), vehicle: saline with Tween-80.
Setting [12] is: dose: 100.0 mg/kg/injection, schedule: Q04DX002 (ip), vehicle: saline with Tween-80.
Setting [13] is: dose: 200.0 mg/kg/injection, schedule: Q04DX002 (ip), vehicle: saline with Tween-80.
[14] abbreviates: dose: 25.0 mg/kg/injection, schedule: Q01DX009 (ip), vehicle: saline with Tween-80.
Setting [15] is: dose: 50.0 mg/kg/injection, schedule: Q01DX009 (ip), vehicle: Klucel (hydroxypropylcellulose) (HPC).
Where [16] appears, read: dose: 100.0 mg/kg/injection, schedule: Q01DX009 (ip), vehicle: Klucel (hydroxypropylcellulose) (HPC).
Setting [17] is: dose: 200.0 mg/kg/injection, schedule: Q01DX009 (ip), vehicle: Klucel (hydroxypropylcellulose) (HPC).

Where “and” joins values, the source holds several entries; their conditions need not be identical. Identical values can stand only once. Toxic doses and inconclusive results are not listed.

As for `CC(C)(C)OC(=O)NC(Cc1ccc(O)cc1)C(=O)O` (stereo unspecified), the T/C was 102 % of control under setting [1], 103 % of control under setting [2] and 96 % of control under setting [3].
Consider `O=C(CN1C(=O)NC(c2ccccc2)(c2ccccc2)C1=O)NCCN1CCOCC1`, for which the T/C under setting [4] was 97 % of control, the T/C under setting [5] is 96 % of control and the T/C under setting [6] is 97 % of control.
`CN(NC1OC(=O)c2ccccc21)c1ccc(C(F)(F)F)cc1[N+](=O)[O-]` (stereo unspecified): the T/C was 95 % of control (dose: 60.0 mg/kg/injection, schedule: Q01DX005 (ip), vehicle: Klucel (hydroxypropylcellulose) (HPC)); 98 % of control (dose: 120.0 mg/kg/injection, schedule: Q01DX005 (ip), vehicle: Klucel (hydroxypropylcellulose) (HPC)); 100 % of control (dose: 240.0 mg/kg/injection, schedule: Q01DX005 (ip), vehicle: Klucel (hydroxypropylcellulose) (HPC)).
Consider `CCCCCCCC(=O)[O][Hg][CH2]C1COC([CH2][Hg][O]C(=O)CCCCCCC)CO1` (stereo unspecified), for which the T/C reads like this: (dose: 12.5 mg/kg/injection, schedule: Q04DX003 (ip), vehicle: saline with Tween-80) 95 % of control; (dose: 16.5 mg/kg/injection, schedule: Q01DX009 (ip), vehicle: saline sonified) 120 % of control; (dose: 16.5 mg/kg/injection, schedule: Q04DX003 (ip), vehicle: saline) 90 % of control; (dose: 25.0 mg/kg/injection, schedule: Q04DX003 (ip), vehicle: saline with Tween-80) 109 % of control; (dose: 25.0 mg/kg/injection, schedule: Q04DX003 (ip), vehicle: saline) 90 % of control; (dose: 37.5 mg/kg/injection, schedule: Q01DX009 (ip), vehicle: saline sonified) 120 % of control. The T/C was 90 % of control (dose: 37.5 mg/kg/injection, schedule: Q04DX003 (ip), vehicle: saline) and 118 % of control (dose: 50.0 mg/kg/injection, schedule: Q04DX003 (ip), vehicle: saline with Tween-80).
As to `CC([OH2+])CNCCN.CC([OH2+])CNCCN.[Ni+2].[O-][Cl+3]([O-])([O-])[O-]` (stereo unspecified), the T/C (dose: 12.5 mg/kg/injection, schedule: Q01DX009 (ip), vehicle: saline) was 111 % of control and the T/C (dose: 25.0 mg/kg/injection, schedule: Q01DX009 (ip), vehicle: saline) was 100 % of control.
Regarding `O=S1(=O)CC(c2ccccc2)(N2CCOCC2)C1`, the T/C by setting is: under setting [7], 94 % of control; under setting [8], 96 % of control; (dose: 200.0 mg/kg/injection, schedule: Q01DX009 (ip), vehicle: saline with Tween-80) 105 % of control.
`CN(C)C1C(O)C2Oc3c(cc(O)c4c3C(=O)c3cc5c(c(O)c3C4=O)C(N3CCCC3)CC(C)(O)C5)C(C)(O2)C1O` (stereo unspecified): the T/C was 113 % of control (dose: 3.12 mg/kg/injection, schedule: Q01DX009 (ip), vehicle: other); 116 % of control (dose: 6.25 mg/kg/injection, schedule: Q01DX009 (ip), vehicle: other); 122 % of control (dose: 12.5 mg/kg/injection, schedule: Q01DX009 (ip), vehicle: other).
With `CCN(CC)CCCC(Nc1c2ccc(Cl)cc2nc2ccc(OC)cc12)c1ccc(F)cc1` (stereo unspecified), the T/C is 96 % of control under setting [9]; 98 % of control under setting [10]; 100 % of control and 107 % of control under setting [11].
`NC(=S)NC12CC3CC(CC(C3)C1)C2`: the T/C runs as follows: (dose: 50.0 mg/kg/injection, schedule: Q04DX002 (ip), vehicle: saline with Tween-80) 99 % of control; under setting [12], 98 % of control; under setting [13], 98 % of control.
For `CCC/C=C\C=C\C(=O)OC1C2C=C3CC(C(C)O)OC(=O)CC(O)CC4CC(OC(C)=O)C(C)(C)C(O)(CC5C/C(=C\C(=O)OC)CC(/C=C/C(C)(C)C16OC(=O)C(O)C32O6)O5)O4` (stereo unspecified), the T/C reads like this: (dose: 0.03 mg/kg/injection, schedule: Q01DX009 (ip), vehicle: saline + alcohol) 163 % of control; (dose: 30.0 micrograms/kg/injection, schedule: Q01DX009 (ip), vehicle: saline + alcohol) 153 % of control.
For the compound `[CH2+][B-]1(C)n2cc(Br)c[n+]2[B-](C)(C)[n+]2cc(Br)cn21`, the T/C runs as follows: under setting [4], 102 % of control; under setting [5], 103 % of control; under setting [6], 103 % of control.
In the case of `CN(C)/C=N\c1ncnc2c1ncn2C1OC(CO)C(O)C1O` (stereo unspecified), the T/C by setting is: (dose: 6.25 mg/kg/injection, schedule: Q01DX009 (ip), vehicle: saline with Tween-80) 104 % of control; (dose: 12.5 mg/kg/injection, schedule: Q01DX009 (ip), vehicle: saline with Tween-80) 98 % of control; under setting [14], 102 % of control; under setting [7], 99 % of control; under setting [8], 95 % of control.
For the compound `Cn1cc(C2NC(=O)c3ccccc3N2)c2ccccc21` (stereo unspecified), the T/C is, setting by setting: (dose: 25.0 mg/kg/injection, schedule: Q01DX005 (ip), vehicle: Klucel (hydroxypropylcellulose) (HPC)) 102 % of control; under setting [1], 106 % of control; (dose: 88.0 mg/kg/injection, schedule: Q01DX005 (ip), vehicle: Klucel (hydroxypropylcellulose) (HPC)) 113 % of control; under setting [2], 115 % of control.
For the compound `COc1ccccc1N=NC(C#N)C(N)=O` (stereo unspecified), the T/C is, setting by setting: under setting [14], 102 % of control; under setting [7], 101 % of control.
`CCOC(=O)CCCCCCCCNC(=O)N1c2c(nc(N)[nH]c2=O)NCC1CNc1ccc(C(=O)NC(CCC(=O)O)C(=O)O)cc1` (stereo unspecified): the T/C is, setting by setting: (dose: 50.0 mg/kg/injection, schedule: Q04DX003 (ip), vehicle: Klucel (hydroxypropylcellulose) (HPC)) 111 % of control; (dose: 100.0 mg/kg/injection, schedule: Q04DX003 (ip), vehicle: Klucel (hydroxypropylcellulose) (HPC)) 106 % of control; (dose: 200.0 mg/kg/injection, schedule: Q04DX003 (ip), vehicle: Klucel (hydroxypropylcellulose) (HPC)) 108 % of control.
Consider `CCC(O)Cn1cnc2c(N)ncnc21` (stereo unspecified), for which the T/C by setting is: under setting [1], 99 % of control; under setting [2], 99 % of control; under setting [3], 100 % of control.
As for `COc1cc(/C=C2\C(=O)C3CCN2CC3)cc(OC)c1OC`, the T/C is, setting by setting: under setting [15], 96 % of control; under setting [16], 93 % of control; under setting [17], 114 % of control.
For `CC(=S)SC1(C)SC(C)(SC(C)=S)S1` (stereo unspecified), the T/C reads like this: under setting [14], 91 % of control; under setting [7], 94 % of control; under setting [8], 94 % of control.
For the compound `C=CC1CCC[S+]1CC(=O)OCC` (stereo unspecified), the T/C runs as follows: under setting [9], 100 % of control; under setting [10], 105 % of control; under setting [11], 102 % of control and 107 % of control.
`Nc1ccccc1N=C(CC(=O)c1ccccc1)C(F)(F)F`: the T/C runs as follows: (dose: 100.0 mg/kg/injection, schedule: Q04DX002 (ip), vehicle: saline) 99 % of control; (dose: 200.0 mg/kg/injection, schedule: Q04DX002 (ip), vehicle: saline) 101 % of control; (dose: 400.0 mg/kg/injection, schedule: Q04DX002 (ip), vehicle: saline) 97 % of control.
Take `NC(N)=NS(=O)(=O)c1ccc(N2C(=O)CC3(CCCC3)C2=O)cc1`: the T/C under setting [15] is 99 % of control, the T/C under setting [16] is 98 % of control and the T/C under setting [17] is 112 % of control.
As for `C=CCN(CC=C)C(=O)CCN1CC1`, the T/C was 108 % of control (dose: 2.5 mg/kg/injection, schedule: Q04DX003 (ip), vehicle: saline); 87 % of control (dose: 5.0 mg/kg/injection, schedule: Q04DX003 (ip), vehicle: saline); 104 % of control (dose: 10.0 mg/kg/injection, schedule: Q04DX003 (ip), vehicle: saline).
For the compound `COc1ccc(NC(=O)C2C(=O)C(=O)N(c3ccc(OC)cc3)C2=O)cc1` (stereo unspecified), the T/C under setting [12] was 100 % of control and the T/C under setting [13] is 101 % of control.
For `N#CCC(=O)N/N=C(/CC1(O)C(=O)Nc2c(Cl)ccc(Cl)c21)c1ccco1` (stereo unspecified), the T/C is 97 % of control under setting [12]; 89 % of control under setting [13]; 89 % of control (dose: 400.0 mg/kg/injection, schedule: Q04DX002 (ip), vehicle: saline with Tween-80).

(Values after PubChem BioAssay AID330 (DTP/NCI, 2004).)
